# Test results taken from patent US20230183219A1, “CONDENSED SUBSTITUTED HYDROPYRROLES AS ANTAGONISTS OF THE MUSCARINIC ACETYLCHOLINE RECEPTOR M4” (Vanderbilt University, priority 2020, published 2023).
# pIC50: −log10 of the molar value.
# Biological target: T1, Human M4 (Homo sapiens, UniProt P08173)
# T1 construct: Human or rat M4 cDNA, along with the chimeric G protein Gqi5, were transfected into Chinese hamster ovary (CHO-K1) cells; expressed in transfected cells; host or cells: CHO-K1 (Chinese hamster ovary, ATCC), stably co-expressing Gqi5
# T1 sequence (P08173 1-479): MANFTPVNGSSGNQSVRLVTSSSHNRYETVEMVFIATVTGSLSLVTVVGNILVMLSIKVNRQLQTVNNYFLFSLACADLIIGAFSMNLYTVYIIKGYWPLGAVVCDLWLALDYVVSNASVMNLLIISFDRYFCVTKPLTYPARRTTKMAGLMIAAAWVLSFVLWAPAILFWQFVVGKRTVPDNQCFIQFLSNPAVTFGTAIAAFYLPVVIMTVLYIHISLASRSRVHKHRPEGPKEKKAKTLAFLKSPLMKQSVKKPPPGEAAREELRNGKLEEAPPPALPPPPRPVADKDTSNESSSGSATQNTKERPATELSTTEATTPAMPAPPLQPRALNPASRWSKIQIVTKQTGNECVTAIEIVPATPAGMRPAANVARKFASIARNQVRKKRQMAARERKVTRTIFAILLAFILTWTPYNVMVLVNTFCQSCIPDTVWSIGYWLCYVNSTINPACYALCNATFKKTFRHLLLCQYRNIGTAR
# Test: mAChR M4 cell-based functional assay (calcium flux, decrease of EC80 acetylcholine response)
# Conditions: for remaining activity at 30 µM: % ACh maximum at 30 μM, read-out: Human M4 Emin; for pIC50: M4/Gqi5/CHO-K1 cells, decrease of response to EC80 acetylcholine
# Outline: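 IC50 reflects inhibition of an EC80 acetylcholine calcium response, fitted by four-parameter logistic equation. Fluo-4-loaded M4/Gqi5 CHO-K1 cells received compound (10-point, 1:3 series) 2 s into the FDSS read, then EC20 acetylcholine at 143 s and EC80 at 268 s.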
SMILES,remaining activity at 30 µM [%],pIC50
"Fc1ccc(C2CC2)cc1-c1cc(C(F)(F)F)c(N[C@H]2C[C@@H]3CN(CC4CCOCC4)C[C@@H]3C2)nn1 [Example 94, (3aR,5s,6aS)-N-(6-(5-cyclopropyl-2-fluorophenyl)-4-(trifluoromethyl)pyridazin-3-yl)-2-((tetrahydro-2H-pyran-4-yl)methyl)octahydro-cyclopenta[c]pyrrol-5-amine]",3,5.88
"CCc1ccc(F)c(-c2cc(C(F)(F)F)c(N[C@H]3C[C@@H]4CN(CC5CCOCC5)C[C@@H]4C3)nn2)c1 [Example 95, (3aR,5s,6aS)-N-(6-(5-ethyl-2-fluorophenyl)-4-(trifluoromethyl)pyridazin-3-yl)-2-((tetrahydro-2H-pyran-4-yl)methyl)octahydro-cyclopenta[c]pyrrol-5-amine]",3,6.03
"CC(C)c1ccc(F)c(-c2cc(C(F)(F)F)c(N[C@H]3C[C@@H]4CN(CC5CCOCC5)C[C@@H]4C3)nn2)c1 [Example 96, (3aR,5s,6aS)-N-(6-(2-fluoro-5-isopropylphenyl)-4-(trifluoromethyl)pyridazin-3-yl)-2-((tetrahydro-2H-pyran-4-yl)methyl)octahydro-cyclopenta[c]pyrrol-5-amine]",3,5.69
"CC(C)Oc1cc(F)c(-c2cc(C(F)(F)F)c(N[C@H]3C[C@@H]4CN(CC5CCOCC5)C[C@@H]4C3)nn2)cc1F [Example 97, (3aR,5s,6aS)-N-(6-(2,5-difluoro-4-isopropoxyphenyl)-4-(trifluoromethyl)pyridazin-3-yl)-2-((tetrahydro-2H-pyran-4-yl)methyl)octahydro-cyclopenta[c]pyrrol-5-amine]",3,6.12
"[2H]C([2H])(C1CCOCC1)N1C[C@H]2C[C@H](Nc3nnc(-c4cc(C)ccc4C)cc3C(F)(F)F)C[C@H]2C1 [Example 98, (3aR,5s,6aS)-N-(6-(2,5-dimethylphenyl)-4-(trifluoromethyl)pyridazin-3-yl)-2-((tetrahydro-2H-pyran-4-yl)methyl-d2)octahydro-cyclopenta[c]pyrrol-5-amine]",3,7.14
"[2H]C([2H])(C1CCOCC1)N1C[C@H]2C[C@H](Nc3nnc(-c4cc(F)ccc4C(F)(F)F)cc3C(F)(F)F)C[C@H]2C1 [Example 99, (3aR,5s,6aS)-N-(6-(5-fluoro-2-(trifluoromethyl)phenyl)-4-(trifluoromethyl)pyridazin-3-yl)-2-((tetrahydro-2H-pyran-4-yl)methyl-d2)octahydro-cyclopenta[c]pyrrol-5-amine]",2,7.26
"Fc1ccc(Cl)c(-c2cc(C(F)(F)F)c(N[C@H]3C[C@@H]4CN(Cc5ccccn5)C[C@@H]4C3)nn2)c1 [Example 100, (3aR,5s,6aS)-N-(6-(2-chloro-5-fluorophenyl)-4-(trifluoromethyl)pyridazin-3-yl)-2-(pyridin-2-ylmethyl)octahydro-cyclopenta[c]pyrrol-5-amine]",4,6.57
"Fc1ccccc1-c1cc(C(F)(F)F)c(N[C@H]2C[C@@H]3CN(Cc4ccccn4)C[C@@H]3C2)nn1 [Example 101, (3aR,5s,6aS)-N-(6-(2-fluorophenyl)-4-(trifluoro-methyl)pyridazin-3-yl)-2-(pyridin-2-ylmethyl)octahydro-cyclopenta[c]pyrrol-5-amine]",3,6.17
"FC(F)(F)c1cc(-c2ccccc2)nnc1N[C@H]1C[C@@H]2CN(Cc3ccccn3)C[C@@H]2C1 [Example 102, (3aR,5s,6aS)-N-(6-phenyl-4-(trifluoro-methyl)pyridazin-3-yl)-2-(pyridin-2-ylmethyl)octahydro-cyclopenta[c]pyrrol-5-amine]",4,6.46
"Cc1ccc(F)cc1-c1cc(C(F)(F)F)c(N[C@H]2C[C@@H]3CN(Cc4ccccn4)C[C@@H]3C2)nn1 [Example 103, (3aR,5s,6aS)-N-(6-(5-fluoro-2-methylphenyl)-4-(trifluoromethyl)pyridazin-3-yl)-2-(pyridin-2-ylmethyl)octahydro-cyclopenta[c]pyrrol-5-amine]",3,7.02
"Cc1cc(C)cc(-c2cc(C(F)(F)F)c(N[C@H]3C[C@@H]4CN(Cc5ccccn5)C[C@@H]4C3)nn2)c1 [Example 104, (3aR,5s,6aS)-N-(6-(3,5-dimethylphenyl)-4-(trifluoromethyl)pyridazin-3-yl)-2-(pyridin-2-ylmethyl)octahydro-cyclopenta[c]pyrrol-5-amine]",3,6.48
"Fc1cccc(-c2cc(C(F)(F)F)c(N[C@H]3C[C@@H]4CN(Cc5ccccn5)C[C@@H]4C3)nn2)c1 [Example 105, (3aR,5s,6aS)-N-(6-(3-fluorophenyl)-4-(trifluoro-methyl)pyridazin-3-yl)-2-(pyridin-2-ylmethyl)octahydro-cyclopenta[c]pyrrol-5-amine]",2,6.33
"Cn1cc2cc(-c3cc(C(F)(F)F)c(N[C@H]4C[C@@H]5CN(Cc6ccccn6)C[C@@H]5C4)nn3)ccc2n1 [Example 106, (3aR,5s,6aS)-N-(6-(2-methyl-2H-indazol-5-yl)-4-(trifluoromethyl)pyridazin-3-yl)-2-(pyridin-2-ylmethyl)octahydro-cyclopenta[c]pyrrol-5-amine]",4,6.56
"[2H]C([2H])(C1CCOCC1)N1C[C@H]2C[C@H](Nc3nnc(-c4ccccc4OC)cc3C(F)(F)F)C[C@H]2C1 [Example 107, (3aR,5s,6aS)-N-(6-(2-methoxyphenyl)-4-(trifluoromethyl)pyridazin-3-yl)-2-((tetrahydro-2H-pyran-4-yl)methyl-d2)octahydro-cyclopenta[c]pyrrol-5-amine]",3,7.58
"[2H]C([2H])(C1CCOCC1)N1C[C@H]2C[C@H](Nc3nnc(-c4ccccc4)cc3C(F)(F)F)C[C@H]2C1 [Example 108, (3aR,5s,6aS)-N-(6-phenyl-4-(trifluoromethyl)pyridazin-3-yl)-2-((tetrahydro-2H-pyran-4-yl)methyl-d2)octahydro-cyclopenta[c]pyrrol-5-amine]",3,7.39
"[2H]C([2H])(C1CCOCC1)N1C[C@H]2C[C@H](Nc3nnc(-c4cnn(C)c4)cc3C(F)(F)F)C[C@H]2C1 [Example 109, (3aR,5s,6aS)-N-(6-(1-methyl-1H-pyrazol-4-yl)-4-(trifluoro-methyl)pyridazin-3-yl)-2-((tetrahydro-2H-pyran-4-yl)methyl-d2)octahydro-cyclopenta[c]pyrrol-5-amine]",3,7.14
"[2H]C([2H])(C1CCOCC1)N1C[C@H]2C[C@H](Nc3nnc(-c4ccc(F)cc4C)cc3C(F)(F)F)C[C@H]2C1 [Example 110, (3aR,5s,6aS)-N-(6-(4-fluoro-2-methylphenyl)-4-(trifluoromethyl)pyridazin-3-yl)-2-((tetrahydro-2H-pyran-4-yl)methyl-d2)octahydro-cyclopenta[c]pyrrol-5-amine]",3,7.33
